Measured values as given in publication PMC3139024 (Bioorganic & medicinal chemistry letters, 2011).

What was measured:
[1] = test system: panel of 15 bacterial strains; assay: organism not typed; assay type: cell-based
[2] = test system: Y79; assay: cytotoxicity profile, Y79; assay type: cell-based; settings: Homo sapiens, Y79, read-out: Cytotoxicity IC50, Y79
[3] = test system: HEK293; assay: cytotoxicity profile, HEK293; assay type: cell-based; settings: Homo sapiens, HEK293, read-out: Cytotoxicity IC50, HEK293
[4] = test system: HL-60/RV+; assay: cytotoxicity profile, HL-60/RV+; assay type: cell-based; settings: Homo sapiens, HL-60, read-out: Cytotoxicity IC50, HL-60/RV+
[5] = test system: Meso47; assay: cytotoxicity profile, Meso47; assay type: cell-based; settings: read-out: Cytotoxicity IC50, Meso47
[6] = biological target: T1, HsPDF (Homo sapiens, UniProt Q9HBH1); assay: HsPDF inhibition, potency and selectivity profiling; assay type: biochemical; settings: for inhibition at 100 µM: read-out: HsPDF (%I); for HsPDF (%I): % Inhibition at 100 μM, average of duplicates, 100: ≥100 %I, 0: ≤0 %I
T1 sequence (Q9HBH1 40-243): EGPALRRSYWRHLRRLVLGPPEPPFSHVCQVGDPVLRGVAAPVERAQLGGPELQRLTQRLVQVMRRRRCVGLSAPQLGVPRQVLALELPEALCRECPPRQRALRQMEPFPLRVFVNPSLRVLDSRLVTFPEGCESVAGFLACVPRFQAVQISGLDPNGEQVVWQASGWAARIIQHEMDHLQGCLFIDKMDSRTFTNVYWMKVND

[7] = biological target: EcPDF (Escherichia coli, UniProt P0A6K3); assay: EcPDF inhibition, potency and selectivity profiling; assay type: biochemical; settings: for EcPDF (%I): % Inhibition at 100 μM, average of duplicates, 100: ≥100 %I, 0: ≤0 %I
Chain of EcPDF (P0A6K3 whole entry): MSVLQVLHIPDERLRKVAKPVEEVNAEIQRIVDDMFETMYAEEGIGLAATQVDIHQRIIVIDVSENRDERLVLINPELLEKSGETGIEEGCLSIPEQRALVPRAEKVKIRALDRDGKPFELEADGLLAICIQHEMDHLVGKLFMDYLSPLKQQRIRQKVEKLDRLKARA

[8] = biological target: APN (Homo sapiens, UniProt P15144); assay: APN inhibition, metalloprotease selectivity panel; assay type: biochemical; settings: % Inhibition at 100 μM, average of duplicates; 100: ≥100 %I; 0: ≤0 %I
Chain of APN (P15144 whole entry, species assumed): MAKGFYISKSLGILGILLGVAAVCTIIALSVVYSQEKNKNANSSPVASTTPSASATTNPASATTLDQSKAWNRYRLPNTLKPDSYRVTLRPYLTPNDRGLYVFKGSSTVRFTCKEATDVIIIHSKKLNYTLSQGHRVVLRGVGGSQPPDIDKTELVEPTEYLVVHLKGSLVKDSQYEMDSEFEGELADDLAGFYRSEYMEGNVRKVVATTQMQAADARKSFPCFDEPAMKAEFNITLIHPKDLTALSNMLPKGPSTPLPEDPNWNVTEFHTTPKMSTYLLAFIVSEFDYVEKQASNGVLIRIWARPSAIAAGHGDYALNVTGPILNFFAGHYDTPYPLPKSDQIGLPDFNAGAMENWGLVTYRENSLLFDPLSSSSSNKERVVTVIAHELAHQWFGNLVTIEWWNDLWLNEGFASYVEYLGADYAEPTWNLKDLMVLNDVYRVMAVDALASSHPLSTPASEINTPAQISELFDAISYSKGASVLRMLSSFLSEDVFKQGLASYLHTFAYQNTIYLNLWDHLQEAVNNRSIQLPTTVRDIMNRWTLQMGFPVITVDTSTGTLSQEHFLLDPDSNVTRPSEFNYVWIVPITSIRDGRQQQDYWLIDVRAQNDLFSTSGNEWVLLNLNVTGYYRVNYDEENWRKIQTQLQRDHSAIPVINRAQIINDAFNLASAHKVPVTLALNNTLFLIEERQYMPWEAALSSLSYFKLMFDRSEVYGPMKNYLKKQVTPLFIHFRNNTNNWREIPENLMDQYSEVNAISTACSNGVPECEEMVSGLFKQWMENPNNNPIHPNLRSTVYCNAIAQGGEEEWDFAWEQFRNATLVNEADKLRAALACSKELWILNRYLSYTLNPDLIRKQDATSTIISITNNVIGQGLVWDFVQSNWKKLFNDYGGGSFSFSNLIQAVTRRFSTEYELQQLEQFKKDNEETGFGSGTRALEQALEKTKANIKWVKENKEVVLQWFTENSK

[9] = biological target: T2, MMP-1 (Homo sapiens, UniProt P03956); assay: MMP-1 inhibition, metalloprotease selectivity panel; assay type: biochemical; settings: for MMP-1 (%I): % Inhibition at 100 μM, average of duplicates, 100: ≥100 %I, 0: ≤0 %I
T2 sequence (P03956 100-469): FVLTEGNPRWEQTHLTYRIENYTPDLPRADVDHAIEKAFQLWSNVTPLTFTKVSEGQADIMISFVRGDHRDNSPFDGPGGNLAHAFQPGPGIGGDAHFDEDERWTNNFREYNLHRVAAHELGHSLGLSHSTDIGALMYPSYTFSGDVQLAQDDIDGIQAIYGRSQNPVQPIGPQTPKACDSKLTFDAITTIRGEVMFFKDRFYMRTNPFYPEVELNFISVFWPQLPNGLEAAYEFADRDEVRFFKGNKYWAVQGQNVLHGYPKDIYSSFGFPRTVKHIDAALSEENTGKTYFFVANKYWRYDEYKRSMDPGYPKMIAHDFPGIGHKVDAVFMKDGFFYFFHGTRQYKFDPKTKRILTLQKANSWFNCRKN

[10] = test system: CWR22; assay: cytotoxicity profile, CWR22; assay type: cell-based; settings: CWR22, read-out: Cytotoxicity IC50, CWR22
[11] = test system: panel of nine well characterized cancer cell lines; assay: cytotoxicity profile across panel of nine cancer cell lines; assay type: cell-based; settings: read-out: cytotoxicity IC50 range across cancer cell lines
[12] = test system: HL-60 tumors; assay: mouse xenograft model using HL-60 cells; assay type: in vivo; settings: dose of 15 mg/kg, pilot study
[13] = test system: metalloproteases tested; assay: activity toward the metalloproteases tested; assay type: biochemical; settings: Suppl. Table 2

SMILES | IC50 [3] [µM] | IC50 [5] [µM] | inhibition at 100 µM [6] [%] | IC50 [7] [µM] | also measured
CCCCC[C@H](CC(=O)NO)C(=O)N[C@H](C(=O)N1CCC[C@H]1CO)C(C)C [Compd 1, actinonin, reference compound] | – | – | – | – | antibacterial activity, number of strains ([1]; panel of 15 bacterial strains): active in 12 out of the 15 strains tested
O=C1C(=O)c2c(C(=O)c3ccccc3)coc2C(Cl)=C1Cl [Compd 5] | ≥ 100 | ≥ 100 | ≥ 100 | > 100 | MIC [1]: > 64 mg/L; IC50 [2]: ≥ 100 µM; IC50 [4]: ≥ 100 µM
O=C1C=Cc2occ(C(=O)c3ccccc3)c2C1=O [Compd 16] | – | – | ≥ 100 | > 100 | APN (%I) [8]: low activity; MMP-1 (%I) [9]: low activity; HsPDF (%I) [6]: completely inhibited; EcPDF (%I) [7]: low activity
COc1ccc(C(=O)c2coc3c2C(=O)C(=O)C=C3)cc1 [Compd 17] | – | ≥ 100 | – | > 100 | APN (%I) [8]: low activity; MMP-1 (%I) [9]: low activity; HsPDF (%I) [6]: completely inhibited; EcPDF (%I) [7]: low activity
COc1ccc(C(=O)c2coc3c2C(=O)C(=O)C=C3Cl)cc1 [Compd 19] | – | ≥ 100 | ≥ 100 | > 100 | –
COc1ccc(C(=O)c2coc3c2C(=O)C(=O)C(Cl)=C3)cc1 [Compd 20] | ≥ 100 | – | – | > 100 | –
COc1ccc(C(=O)c2coc3c2C(=O)C(=O)C=C3Br)cc1 [Compd 21] | – | ≥ 100 | ≥ 100 | > 100 | –
COc1ccc(C(=O)c2coc3c2C(=O)C(=O)C(Cl)=C3Cl)cc1 [Compd 22] | – | ≥ 100 | – | > 100 | MIC [1]: > 64 mg/L; MMP-1 (%I) [9]: no significant activity; inhibition at 100 µM ([9]; read-out: MMP-1 (%I)): ≤ 0%; EcPDF (%I) [7]: no significant activity
COc1ccc(C(=O)c2coc3c2C(=O)C(=O)C(Cl)=C3Cl)cc1OC [Compd 23] | ≥ 100 | – | ≥ 100 | – | IC50 [4]: ≥ 100 µM
COc1cc(C(=O)c2coc3c2C(=O)C(=O)C(Cl)=C3Cl)cc(OC)c1OC [Compd 24] | – | ≥ 100 | ≥ 100 | > 100 | –
COc1ccc(C(=O)c2coc3c2C(=O)C(=O)C(Br)=C3Br)cc1 [Compd 25] | ≥ 100 | ≥ 100 | ≥ 100 | > 100 | IC50 [4]: ≥ 100 µM
COc1ccc(C(=O)c2coc3c2C(=O)C(=O)C(Br)=C3Br)cc1OC [Compd 26] | ≥ 100 | ≥ 100 | ≥ 100 | > 100 | IC50 [2]: ≥ 100 µM; IC50 [10]: ≥ 100 µM
COc1cc(C(=O)c2coc3c2C(=O)C(=O)C(Br)=C3Br)cc(OC)c1OC [Compd 27] | – | – | ≥ 100 | > 100 | IC50 [11]: 2.8 to 37 µM; delay of growth of HL-60 tumors [12]: up to 40%; EcPDF (IC50, μM) [7]: no significant activity
COc1ccc(C(=O)c2coc3c2C(=O)C(=O)c2ccccc2-3)cc1 [Compd 32] | – | – | – | – | activity toward any of the metalloproteases tested [13]: no activity
COc1ccc(C(=O)c2coc3c2C(=O)C(=O)c2ccccc2-3)cc1OC [Compd 33] | – | – | – | – | activity toward any of the metalloproteases tested [13]: no activity
COc1cc(C(=O)c2coc3c2C(=O)C(=O)c2ccccc2-3)cc(OC)c1OC [Compd 34] | – | – | – | – | activity toward any of the metalloproteases tested [13]: no activity
